In US20230203098A1, “HUMAN TRANSFERRIN RECEPTOR BINDING PEPTIDE” (priority 2020, published 2023):
Read-outs that look alike come from different tables or passages of the source. Values belong to the molecule of their own block, whether it stands above or below them. *1 amine or outer side, *2 acyl side, *3 side chain or, on linkers, in order; H or OH if unused. Where a SMILES comes first, the peptide text is derived from it. Bridges are numbered along the chain shown (N, C = ends). [ ]: non-standard residue; d: D form. The star is where a group is joined. X2 = O=C(O)c1cc(C(=O)*)ccc1-c1c2ccc(=O)cc-2oc2cc(O)ccc12; PEG12 = NCCOCCOCCOCCOCCOCCOCCOCCOCCOCCOCCOCCOCCC(=O)O; X3 = NC(=O)Cn1cc(C[C@H](N[*:1])C(=O)[*:2])c2ccccc21; NMePhe(3-Cl) = CN[C@@H](Cc1cccc(Cl)c1)C(=O)O; NMeW = CN[C@@H](Cc1c[nH]c2ccccc12)C(=O)O; NMeY = CN[C@@H](Cc1ccc(O)cc1)C(=O)O; NMeF = CN[C@@H](Cc1ccccc1)C(=O)O; Aib = CC(C)(N)C(=O)O

Target: transferrin receptor (hTfR) (Homo sapiens, UniProt P02786)
Assay: Intermolecular interaction evaluation test between transferrin receptor (hTfR) and peptide by surface plasmon resonance (SPR)
Type: binding
Procedure, shortened: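 hTfR captured on Ni-NTA chip then amine-coupled; peptides run single-cycle kinetics at 5–100 nM in 10 mM HEPES pH 8.0, 150 mM NaCl, 0.05% Tween 20, 0.1% BSA, 1.0% DMSO. KD from least-squares curve fitting of sensorgrams.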

[1] = SPR, peptides, linker-added peptides and FITC conjugates, Patent ID 203-230, read-out: KD
[2] = SPR, hTfR No. 894 variants with PEG12c linker (Table 2), read-out: KD
[3] = surface plasmon resonance, hTfR, read-out: KD value for hTfR by SPR (class symbol)

Sequence of transferrin receptor (hTfR) (P02786 whole entry): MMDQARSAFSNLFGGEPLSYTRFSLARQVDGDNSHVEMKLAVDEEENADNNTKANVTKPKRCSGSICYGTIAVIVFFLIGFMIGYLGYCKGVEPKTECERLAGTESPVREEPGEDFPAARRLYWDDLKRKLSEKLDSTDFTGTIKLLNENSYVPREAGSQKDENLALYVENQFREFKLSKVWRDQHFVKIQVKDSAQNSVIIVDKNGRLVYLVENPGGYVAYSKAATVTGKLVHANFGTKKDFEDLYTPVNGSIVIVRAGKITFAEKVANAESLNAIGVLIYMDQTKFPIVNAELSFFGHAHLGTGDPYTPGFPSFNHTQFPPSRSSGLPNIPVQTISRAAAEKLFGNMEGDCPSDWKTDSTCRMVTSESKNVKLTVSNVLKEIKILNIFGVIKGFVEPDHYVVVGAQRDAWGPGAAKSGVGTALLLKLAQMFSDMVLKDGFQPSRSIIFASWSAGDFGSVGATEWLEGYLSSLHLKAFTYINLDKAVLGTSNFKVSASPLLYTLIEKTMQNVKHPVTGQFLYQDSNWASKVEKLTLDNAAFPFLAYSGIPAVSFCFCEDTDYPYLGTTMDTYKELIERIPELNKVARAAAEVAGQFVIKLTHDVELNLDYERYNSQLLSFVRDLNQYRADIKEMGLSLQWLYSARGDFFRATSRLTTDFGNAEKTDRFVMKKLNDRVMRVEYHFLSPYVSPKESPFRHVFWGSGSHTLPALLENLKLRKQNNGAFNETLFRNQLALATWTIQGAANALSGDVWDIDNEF

SMILES: CC[C@H](C)[C@@H]1NC(=O)[C@H](Cc2ccc(OCCN)cc2)NC(=O)[C@H](Cc2ccc(O)cc2)NC(=O)[C@H](CC(N)=O)NC(=O)[C@H](Cc2c[nH]c3ccccc23)NC(=O)[C@H](C(C)C)NC(=O)[C@H](Cc2ccccc2)N(C)C(=O)[C@H](C(C)C)NC(=O)[C@H](C)NC(=O)CSC[C@@H](C(N)=O)NC(=O)[C@H](Cc2ccc(O)cc2)N(C)C(=O)[C@H](Cc2ccccc2)NC(=O)[C@H](CCCNC(=N)N)NC(=O)C(C)(C)NC(=O)[C@H]([C@@H](C)CC)NC1=O [compound 524]
Kd (SPR, hTfR, class symbols A-D, read-out: KD (column without head, continuation of the table series)): 100 to 1000 nM

SMILES: CC[C@H](C)[C@@H]1NC(=O)[C@H](Cc2ccc(OC)cc2)NC(=O)[C@H](Cc2ccc(O)cc2)NC(=O)[C@H](CC(N)=O)NC(=O)[C@H](Cc2c[nH]c3ccccc23)N(C)C(=O)[C@H](C(C)C)NC(=O)[C@H](Cc2cccc(Cl)c2)N(C)C(=O)[C@H](CCC(=O)O)NC(=O)[C@H](C)NC(=O)CSC[C@@H](C(N)=O)NC(=O)[C@H](CC(N)=O)NC(=O)[C@H](CCCNC(=N)N)NC(=O)[C@@H]2CCCN2C(=O)[C@H](C(C)C)NC1=O [compound 207] ({CH2CO}-AE[NMePhe(3-Cl)]V[NMeW]NYY(Me)IVPRNC-NH2; thioether N-14)
Kd [1]: 1 to 100 nM

SMILES: CC[C@H](C)[C@@H]1NC(=O)[C@H](Cc2ccc(OC)cc2)NC(=O)[C@H](Cc2ccc(O)cc2)NC(=O)[C@H](CC(N)=O)NC(=O)[C@H](Cc2c[nH]c3ccccc23)N(C)C(=O)[C@H](C(C)C)NC(=O)[C@H](Cc2cccc(Cl)c2)N(C)C(=O)[C@H](CN)NC(=O)[C@H](C)NC(=O)CSC[C@@H](C(=O)NCC(=O)NCC(=O)NCC(=O)NCC(=O)N[C@@H](CO)C(=O)N[C@@H](CO)C(=O)N[C@@H](CS)C(N)=O)NC(=O)[C@H](Cc2ccc(O)cc2)N(C)C(=O)[C@H](Cc2ccccc2)NC(=O)[C@@H](CCCNC(=N)N)NC(=O)[C@H](CCCNC(=N)N)NC(=O)[C@H]([C@@H](C)CC)NC1=O [compound 239]
Kd: 1 to 100 nM

SMILES: CC[C@H](C)[C@@H]1NC(=O)[C@H](Cc2ccc(O)cc2)NC(=O)[C@H](Cc2ccc(O)cc2)NC(=O)[C@H](CC(N)=O)NC(=O)[C@H](Cc2c[nH]c3ccccc23)NC(=O)[C@H](C(C)C)NC(=O)[C@H](Cc2ccccc2)NC(=O)[C@H](C(C)C)NC(=O)[C@H](C)NC(=O)CSC[C@@H](C(=O)NCCOCCOCCOCCOCCOCCOCCOCCOCCOCCOCCOCCOCCC(=O)N[C@@H](CCCCNC(=O)c2ccc(-c3c4ccc(=O)cc-4oc4cc(O)ccc34)c(C(=O)O)c2)C(N)=O)NC(=O)[C@H](CC(=O)O)NC(=O)[C@H](CCCNC(=N)N)NC(=O)[C@@H]2CCCN2C(=O)[C@H](C(C)C)NC1=O [compound 209] ({CH2CO}-AVFVWNYYIVPRDC[PEG12]K(X2)-NH2; thioether N-14)
Kd [1]: 1 to 100 nM

SMILES: CC[C@H](C)[C@@H]1NC(=O)[C@H](Cc2ccc(OC)cc2)NC(=O)[C@H](Cc2ccc(O)cc2)NC(=O)[C@H](CC(N)=O)NC(=O)[C@H](Cc2c[nH]c3ccccc23)N(C)C(=O)[C@H](C(C)C)NC(=O)[C@H](Cc2cccc(Cl)c2)N(C)C(=O)[C@H](C(C)C)NC(=O)[C@H](C)NC(=O)CSC[C@@H](C(=O)NCC(=O)NCC(=O)NCC(=O)NCC(=O)N[C@@H](CO)C(=O)N[C@@H](CO)C(=O)N[C@@H](CS)C(N)=O)NC(=O)[C@H](Cc2ccc(O)cc2)N(C)C(=O)[C@H](Cc2ccccc2)NC(=O)[C@@H](CCCNC(=N)N)NC(=O)[C@H](CCCNC(=N)N)NC(=O)[C@H](CN)NC1=O [compound 343]
Kd: 1 to 100 nM

SMILES: CC[C@H](C)[C@@H]1NC(=O)[C@H](Cc2ccc(O)cc2)NC(=O)[C@H](Cc2c[nH]c3ccccc23)NC(=O)[C@H](CC(N)=O)NC(=O)[C@H](Cc2c[nH]c3ccccc23)NC(=O)[C@H](C(C)C)NC(=O)[C@H](Cc2ccccc2)N(C)C(=O)[C@H](C(C)C)NC(=O)[C@H](C)NC(=O)CSC[C@@H](C(=O)NCCOCCOCCOCCOCCOCCOCCOCCOCCOCCOCCOCCOCCC(N)=O)NC(=O)[C@H](Cc2ccc(O)cc2)N(C)C(=O)[C@H](Cc2ccc(O)cc2)NC(=O)[C@H](CCCNC(=N)N)NC(=O)[C@H](CCCNC(=N)N)NC(=O)[C@H]([C@@H](C)CC)NC1=O [compound 125] ({CH2CO}-AV[NMeF]VWNWYIIRRY[NMeY]C[PEG12]-NH2; thioether N-15)
Kd [2]: 1 to 100 nM

The remaining lines, values ahead:

Kd [1]: 1 to 100 nM
SMILES: CC[C@H](C)[C@@H]1NC(=O)[C@H](Cc2ccc(O)cc2)NC(=O)[C@H](Cc2ccc(O)cc2)NC(=O)[C@H](CC(N)=O)NC(=O)[C@H](Cc2c[nH]c3ccccc23)NC(=O)[C@H](C(C)C)NC(=O)[C@H](Cc2ccccc2)NC(=O)[C@H](C(C)C)NC(=O)[C@H](C)NC(=O)CSC[C@@H](C(=O)NCCOCCOCCOCCOCCOCCOCCOCCOCCOCCOCCOCCOCCC(=O)N[C@@H](CCCCNC(=O)c2ccc(-c3c4ccc(=O)cc-4oc4cc(O)ccc34)c(C(=O)O)c2)C(N)=O)NC(=O)[C@H](Cc2c[nH]c3ccccc23)N(C)C(=O)[C@H](CCCNC(=N)N)NC(=O)[C@@H]2CCCN2C(=O)[C@H](C(C)C)NC1=O [compound 210] ({CH2CO}-AVFVWNYYIVPR[NMeW]C[PEG12]K(X2)-NH2; thioether N-14)

Kd [2]: 1 to 100 nM
SMILES: CC[C@H](C)[C@@H]1NC(=O)[C@H](Cc2ccc(O)cc2)NC(=O)[C@H](Cc2ccc(O)cc2)NC(=O)[C@H](CC(N)=O)NC(=O)[C@H](Cc2cccc(F)c2)NC(=O)[C@H](C(C)C)NC(=O)[C@H](Cc2ccccc2)N(C)C(=O)[C@H](C(C)C)NC(=O)[C@H](C)NC(=O)CSC[C@@H](C(=O)NCCOCCOCCOCCOCCOCCOCCOCCOCCOCCOCCOCCOCCC(N)=O)NC(=O)[C@H](Cc2ccc(O)cc2)N(C)C(=O)[C@H](Cc2ccc(O)cc2)NC(=O)[C@H](CCCNC(=N)N)NC(=O)[C@H](CCCNC(=N)N)NC(=O)[C@H]([C@@H](C)CC)NC1=O [compound 122]

Kd [3]: 1 to 100 nM
SMILES: CC[C@H](C)[C@@H]1NC(=O)[C@H](Cc2ccc(O)cc2)NC(=O)[C@H](Cc2ccc(O)cc2)NC(=O)[C@H](CC(N)=O)NC(=O)[C@H](Cc2c[nH]c3ccccc23)NC(=O)[C@H](C(C)C)NC(=O)[C@H](Cc2ccccc2)NC(=O)[C@H](C(C)C)NC(=O)[C@H](C)NC(=O)CCC[C@@H](C(N)=O)NC(=O)[C@H](Cc2ccc(O)cc2)N(C)C(=O)[C@H](Cc2ccc(O)cc2)NC(=O)[C@H](CCCNC(=N)N)NC(=O)[C@H](CCCNC(=N)N)NC(=O)[C@H]([C@@H](C)CC)NC1=O [compound 408]

Kd [1]: 1 to 100 nM
SMILES: CC[C@H](C)[C@@H]1NC(=O)[C@H](Cc2ccc(O)cc2)NC(=O)[C@H](Cc2ccc(O)cc2)NC(=O)[C@H](CC(N)=O)NC(=O)[C@H](Cc2c[nH]c3ccccc23)NC(=O)[C@H](C(C)C)NC(=O)[C@H](Cc2ccccc2)NC(=O)[C@H](C(C)C)NC(=O)[C@H](CCC(=O)O)NC(=O)CSC[C@@H](C(=O)NCCOCCOCCOCCOCCOCCOCCOCCOCCOCCOCCOCCOCCC(=O)NN)NC(=O)[C@H](Cc2ccc(O)cc2)N(C)C(=O)[C@H](Cc2ccc(O)cc2)NC(=O)[C@H](CCCNC(=N)N)NC(=O)[C@H](CCCNC(=N)N)NC(=O)[C@H]([C@@H](C)CC)NC1=O [compound 218]

Kd [1]: 1 to 100 nM
SMILES: CC[C@H](C)[C@@H]1NC(=O)[C@H](Cc2ccc(OC)cc2)NC(=O)[C@H](Cc2ccc(O)cc2)NC(=O)[C@H](CC(N)=O)NC(=O)[C@H](Cc2c[nH]c3ccccc23)N(C)C(=O)[C@H](C(C)C)NC(=O)[C@H](Cc2cccc(Cl)c2)N(C)C(=O)[C@H](CCC(=O)O)NC(=O)[C@H](C)NC(=O)CSC[C@@H](C(N)=O)NC(=O)[C@H](CO)NC(=O)[C@H]([C@@H](C)CC)NC1=O [compound 203] ({CH2CO}-AE[NMePhe(3-Cl)]V[NMeW]NYY(Me)IISC-NH2; thioether N-12)

Kd (surface plasmon resonance, peptide vs hTfR, read-out: KD value for hTfR by SPR (class symbol)): 100 to 1000 nM
SMILES: CC[C@H](C)[C@@H]1NC(=O)[C@@H]2CCCCNC(=O)[C@H]3CCCN3C(=O)CC[C@H](NC(=O)[C@H](C(C)C)NC(=O)[C@H](C)NC(=O)CSC[C@@H](C(N)=O)NC(=O)[C@H](Cc3ccc(O)cc3)N(C)C(=O)[C@H](Cc3ccc(O)cc3)NC(=O)[C@H](CCCNC(=N)N)NC(=O)[C@H](CCCNC(=N)N)NC(=O)[C@H]([C@@H](C)CC)NC1=O)C(=O)N[C@@H](C(C)C)C(=O)N(C)[C@@H](Cc1c[nH]c3ccccc13)C(=O)N[C@@H](CC(N)=O)C(=O)N[C@@H](Cc1ccc(O)cc1)C(=O)N2 [compound 413] ({CH2CO}-AVEV[NMeW]NYKIIRRY[NMeY]C-NH2; linker 3-8 via dP; thioether N-15)

Kd [3]: < 1 nM
SMILES: CC[C@H](C)[C@@H]1NC(=O)[C@H](Cc2ccc(OC)cc2)NC(=O)[C@H](Cc2ccc(O)cc2)NC(=O)[C@H](CC(N)=O)NC(=O)[C@H](Cc2c[nH]c3ccccc23)N(C)C(=O)[C@H](C(C)C)NC(=O)[C@H](Cc2cccc(Cl)c2)N(C)C(=O)[C@H](C(C)C)NC(=O)[C@H](C)NC(=O)CSC[C@@H](C(N)=O)NC(=O)[C@H](Cc2ccc(O)cc2)N(C)C(=O)[C@H](CCC(=O)NCCOCCOCCOCCOCCOCCOCCOCCOC)NC(=O)[C@@H](CCCNC(=N)N)NC(=O)[C@H](CCCNC(=N)N)NC(=O)[C@H]([C@@H](C)CC)NC1=O [compound 389]

Kd (surface plasmon resonance, peptide vs hTfR, read-out: KD value, hTfR binding by SPR (class symbol)): 100 to 1000 nM
SMILES: CC[C@H](C)[C@@H]1NC(=O)[C@H](Cc2ccc(OC)cc2)NC(=O)[C@H](Cc2ccc(O)cc2)NC(=O)[C@H](CC(N)=O)NC(=O)[C@H](Cc2cn(CC(N)=O)c3ccccc23)NC(=O)[C@H](C(C)C)NC(=O)[C@H](Cc2cccc(Cl)c2)N(C)C(=O)[C@H](C(C)C)NC(=O)[C@H](C)NC(=O)CSC[C@@H](C(N)=O)NC(=O)[C@H](Cc2ccc(O)cc2)N(C)C(=O)[C@H](Cc2ccccc2)NC(=O)[C@@H](CCCNC(=N)N)NC(=O)C(C)(C)NC(=O)[C@H]([C@@H](C)CC)NC1=O [compound 304] ({CH2CO}-AV[NMePhe(3-Cl)]V[X3]NYY(Me)II[Aib][dR]F[NMeY]C-NH2; thioether N-15)
